{"source": "paper PMC10385579", "about": "“Design, Synthesis, and Biological Evaluation of Indole-2-carboxamides as Potential Multi-Target Antiproliferative Agents” (Pharmaceuticals, 2023)", "assay_type_in_all_cases": "cell-based, human", "key": {"caspase-3": {"test_system": "caspase-3", "assay": "Caspase 3 assay in A-549 cells", "details": "for Caspase-3 Conc: untreated control 66 pg/mL", "procedure": "Caspases play a crucial function in the induction and completion of apoptosis. Caspase-3 is an essential caspase that cleaves different proteins in cells, resulting in apoptosis. […]\n4.2.5. Caspase-3 activation assay\nAllow all reagents to reach room temperature before use. Gently mix all liquid reagents prior to use. Determine the number of 8-well strips needed for the assay. Insert these in the frame(s) for current use. Add 100 μl of the Standard Diluent Buffer to the zero standard wells. Well(s) reserved for chromogen blank should be left empty. Add 100 μl of standards and controls or diluted samples to the appropriate microtiter wells. The sample dilution chosen should be optimized for each experimental system. Tap gently on side of plate to mix. Cover wells with plate cover and incubate for 2 hours at room temperature. Thoroughly aspirate or decant solution from wells and discard the liquid, Wash wells 4 times. Pipette 100 μl of Caspase-3 (Active) Detection Antibody solution into each well except the chromogen blank(s). Tap gently on the side of the plate to mix. Cover plate with plate cover and incubate for 1 hour at room temperature. Thoroughly aspirate or decant solution from wells and discard the liquid, Wash wells 4 times. Add 100 μl Anti-Rabbit IgG HRP Working Solution to each well except the chromogen blank(s). Prepare the working dilution as described in Preparing IgG HRP. Cover wells with the plate cover and incubate for 30 minutes at room temperature. Thoroughly aspirate or decant solution from wells and discard the liquid. Wash wells 4 times. Add 100 μl of Stabilized Chromoge n to each well. The liquid in the wells will begin to turn blue. Incubate for 30 minutes at room temperature and in the dark. The incubation time for chromogen substrate is often determined by the microtiter plate reader used. Many plate readers have the capacity to record a maximum optical density (O.D.) of 2.0. The O.D. values should be monitored, and the substrate reaction stopped before the O.D. of the positive wells exceeds the limits of the instrument. The O.D. values at 450 nm can only be read after the Stop Solution has been added to each well. If using a reader that records only to 2.0 O.D., stopping the assay after […]\nAdd 100 μl of Stop Solution to each well. Tap side of plate gently to mix. The solution in the wells should change from blue to yellow. Read the absorbance of each well at 450 nm having blanked the plate reader against a chromogen blank composed of 100 μl each of Stabilized Chromogen and Stop Solution. Read the plate within 2 hours after adding the Stop Solution. Use a curve fitting software to generate the standard curve. A four-parameter algorithm provides the best standard curve fit. Read the concentrations for unknown samples and controls from the standard curve. Multiply value(s) obtained for sample(s) by the appropriate dilution factor to correct for the dilution in step 3. Samples producing signals greater than that of the highest standard should be diluted in Standard Diluent Buffer and reanalyzed."}, "Bax": {"test_system": "Bax", "assay": "Bax level assay in A-549 cells", "procedure": "caspase8, and lysed with Cell Extraction Buffer. This lysate was diluted in Standard Diluent Buffer over the range of the assay and measured for human active caspase-8 content. […]\n4.2.7. Bax activation assay\nBring all reagents, except the human Bax-α Standard, to room temperature for at least 30 minutes prior to opening. The human Bax-α Standard solution should not be left at room temperature for more than 10 minutes. All standards, controls and samples should be run in duplicate. Refer to the Assay Layout Sheet to determine the number of wells to be used and put any remaining wells with the desiccant back into the pouch and seal the ziploc. Store unused wells at 4 °C. Pipet 100 μL of Assay Buffer into the S0 (0 pg/mL standard) wells. Pipet 100 μL of Standards #1 through #6 into the appropriate wells. Pipet 100 μL of the Samples into the appropriate wells. Tap the plate gently to mix the contents. Seal the plate and incubate at room temperature on a plate shaker for 1 hour at ~500 rpm. Empty the contents of the wells and wash by adding 400 μL of wash solution to every well. Repeat the wash 4 more times for a total of 5 washes. After the final wash, empty or aspirate the wells and firmly tap the plate on a lint free paper towel to remove any remaining wash buffer.\nPipet 100 μL of yellow Antibody into each well, except the Blank. Seal the plate and incubate at room temperature on a plate shaker for 1 hour at ~500 rpm. Empty the contents of the wells and wash by adding 400 μL of wash solution to every well. Repeat the wash 4 more times for a total of 5 washes. After the final wash, empty or aspirate the wells and firmly tap the plate on a lint free paper towel to remove any remaining wash buffer. Add 100 μL of blue Conjugate to each well, except the Blank. Seal the plate and incubate at room temperature on a plate shaker for 30 minutes […]\nPipet 100 μL of Substrate Solution into each well. Incubate for 30 minutes at room temperature on a plate shaker at ~500 rpm. Pipet 100 μL Stop Sol ution to each well. Blank the plate reader against the Blank wells, read the optical density at 450 nm. Calculate the average net Optical Density (OD) bound for each standard and sample by subtracting the average Blank OD from the average OD for each standard and sample. Using linear graph paper, plot the Average Net OD for each standard versus Bax concentration in each standard. Approximate a straight line through the points.\nThe concentration of Bax in the unknowns can be determined by interpolation. […]"}, "caspase-8": {"test_system": "caspase-8", "assay": "Caspase-8 level assay in A-549 cells", "procedure": "See Supplementary Materials.\n4.2.6. Caspase-8 activation assay […]\ncaspase8, and lysed with Cell Extraction Buffer. This lysate was diluted in Standard Diluent Buffer over the range of the assay and measured for human active caspase-8 content. (Cells are Plated in a density of 1.2 – 1.8 × 10,000 cells/well in a vo lume of 100µl complete growth medium + 100 ul of the tested compound per well in a 96-well plate for 24 hours before the enzyme assay for Tubulin.). The absorbance of each microwell was read on a spectro-photometer at 450 nm. A standard curve is prepared from 7human Caspase-8 standard dilutions and human Caspase-8 concentration determined. […]"}, "Bcl-2": {"test_system": "Bcl-2", "assay": "Bcl-2 level assay in A-549 cells", "procedure": "Compounds Va and Vg were explored further for their impact on caspase-8, Bax, and Bacl-2 levels against a human epithelial cancer cell line (A-549) using doxorubicin as a reference. See Supplementary Materials. […]\n4.2.8. Bcl-2inhibition assay\nMix all reagents thoroughly without foaming before use. Wash the microwells twice with approximately 300 μL Wash Buffer per well with thorough aspiration of microwell contents between washes. Take caution not to scratch the surface of the microwells. After the last wash, empty the wells and tap microwell strips on absorbent pad or paper towel to remove excess Wash Buffer. Use the microwell strips immediately after washing or place upside down on a wet absorbent paper for not longer than 15 minutes. […] Add 100 μL of Sample […]\nDiluent in duplicate to all standard wells and to the blank wells. Prepare standard (1:2 dilution) in duplicate ranging from 32 ng/mL to 0.5 ng/mL. Add 100 μL of Sample Diluent, in duplicate, to the blank wells. Add 80 μL of Sample Diluent, in duplicate, to the sample wells. Add 20 μL of each Sample, in duplicate, to the designated wells. Add 50 μL of diluted biotin-conjugate to all wells, including the blank wells. Cover with a plate cover and incubate at room temperature, on a microplate shaker at 100 rpm if available, for 2 hours. Remove plate cover and empty the wells.\nWash microwell strips 3 times as described in step 2. Add 100 μL of diluted Streptavidin-HRP to all wells, including the blank wells. Cover with a plate cover and incubate at room temperature, on a microplate shaker at 100 rpm if available, for 1 hour. Remove plate cover and empty the wells.\nWash microwell strips 3 times as described in step 2. Proceed to the next step. Pipette 100 μl of mixed TMB Substrate Solution to all wells, including the blanks. Incubate the microwell strips at room temperature (18° to 25°C) for about 15 minutes, if available on a rotator set at 100 rpm.\nAvoid direct exposure to intense light. The point, at which the substrate reaction is stopped, is often determined by the ELISA reader. Many ELISA readers record absorbance only up to 2.0\nO.D. Therefore, the color development within individual microwells must be watched by the person running the assay and the substrate reaction stopped before positive wells are no longer properly detectable. Stop the enzyme reaction by quickly pipetting 100 μL of Stop Solution into each well, including the blank wells. It is important that the Stop Solution is spread quickly and uniformly throughout the microwells to completely inactivate the enzyme. Results must be read immediately after the Stop Solution is added or within one hour if the microwell strips are stored at 2 - 8°C in the dark. Read absorbance of each microwell on a spectrophotometer using 450 nm as the primary wavelength."}}, "data": [{"smiles": "COc1cccc2c1C(=O)c1c(O)c3c(c(O)c1C2=O)C[C@@](O)(C(=O)CO)C[C@@H]3O[C@H]1C[C@H](N)[C@H](O)[C@H](C)O1", "note": "[Doxorubicin, reference compound]", "values": [{"measurement": "Caspase-3 Conc", "setting": "caspase-3", "result": "505 ± 4", "unit": "pg/mL"}, {"measurement": "Caspase-3 Conc", "setting": "caspase-3; listed as doxorubicin", "result": "505 ± 4.0", "unit": "pg/mL"}, {"measurement": "Caspase-3 Fold Change", "setting": "caspase-3; vs untreated control", "result": 7.5}, {"measurement": "Bax Conc", "setting": "Bax; control 9", "result": 280, "unit": "pg/mL"}, {"measurement": "Bax Fold Change", "setting": "Bax; vs control", "result": 31}, {"measurement": "Caspase-8 Conc", "setting": "caspase-8; control 0.10", "result": 1.80, "unit": "ng/mL"}, {"measurement": "Caspase-8 Fold Change", "setting": "caspase-8; vs control", "result": 18}, {"measurement": "Bcl-2 Conc", "setting": "Bcl-2; control 5", "result": 0.90, "unit": "ng/mL"}, {"measurement": "Bcl-2 Fold Reduction", "setting": "Bcl-2; vs control", "result": 6}]}]}
